Experimental data: patent US7927791B2, “Methods for identifying small molecules that modulate premature translation termination and nonsense mediated mRNA decay” (PTC Therapeutics, Inc., priority 2002, dated 2011)

How the values were obtained:
[1] = tested on: HIV-1 TAR element TAR RNA oligonucleotide; test: Gel retardation analysis of Tat peptide binding to TAR RNA (non-denaturing polyacrylamide gel); conditions: 12% non-denaturing polyacrylamide gel, TK buffer, FIG. 2
Description: FIG. 2. Gel retardation analysis to detect peptide-RNA interactions. In 20 μl reactions containing 50 pmole end-labeled TAR RNA oligonucleotide, increasing concentrations of Tat47-58 peptide (0.1 uM, 0.2 uM, 0.4 uM, 0.8 uM, 1.6 uM) was added in TK buffer. The reaction mixture was then heated at 90° C for 2 min and allowed to cool slowly to 24° C. 10 μl of 30% glycerol was added to each sample and applied to a 12% non-denaturing polyacrylamide gel. The gel was electrophoresed using 1200 volt-hours at 4° C. in TBE Buffer. Following electrophoresis, the gel was dried and the radioactivity was quantitated with a phosphorimager. The concentration of peptide added is indicated above each lane.
(§1) Tris-potassium chloride (TK) buffer is composed of 50 mM Tris-HCl pH 7.4, 20 mM KCl, 0.1% Triton X-100, and 0.5 mM MgCl2. Tris-borate-EDTA (TBE) buffer is composed of 45 mM Tris-borate pH 8.0, and 1 mM EDTA. Tris-Potassium chloride-magnesium (TKM) buffer is composed of 50 mM Tris-HCl pH 7.4, 20 mM KCl, 0.1% Triton X-100 and 5 mM MgCl2.
RNA oligonucleotides were purchased from Dharmacon, Inc, Lafayette, Colo.). […] The gel was exposed to an intensifying screen and radioactivity was quantitated using a Typhoon phosporimager molecular Dynamics).

[2] = tested on: HIV-1 TAR element TAR RNA oligonucleotide; test: Gel retardation assay by automated capillary electrophoresis (Tat peptide and TAR RNA); assay type: binding; conditions: increasing concentrations of Tat peptide, SCE9610 apparatus, FIG. 6
Description: FIG. 6. Gel retardation analysis to detect peptide-RNA interactions. In reactions containing increasing concentrations of Tat47-58 peptide (0.1 mM, 0.2 mM, 0.4 mM, 0.8 mM, 1.6 mM) 50 pmole TAR RNA oligonucleotide was added in TK buffer. The reaction mixture was then heated at 90° C. for 2 min and allowed to cool slowly to 24° C. The reactions were loaded onto a SCE9610 automated capillary electrophoresis apparatus (SpectruMedix; State College, Pennsylvania). The peaks correspond to the amount of free TAR RNA (“TAR”) or the Tat-TAR complex (“Tat-TAR”). The concentration of peptide added is indicated below each lane.
as §1, with “0.5 mM MgC2. Tris-borate-EDTA (IBE)” for “0.5 mM MgCl2. Tris-borate-EDTA (TBE)”, “MgC2. Tris-borate-EDTA (IBE) buffer is” for “MgCl2. Tris-borate-EDTA (TBE) buffer is”
RNA oligonucleotides were purchased from Dharmacon, Inc, Lafayette, Colo.). 500 pmole of a 5′ fluorescein labeled oligonucleotide corresponding to the HIV-1 TAR element TAR RNA (5′-[…]-3′ (SEQ ID NO: 2); Huq et al., 1999, Nucleic Acids Research. 27:1084-1093; Hwang et al., 1999, Proc. Natl. Acad. Sci. USA 96:12997-13002) was used. […]

[3] = tested on: RNA oligonucleotide corresponding to the 16S rRNA A site; test: Gel mobility shift assay of gentamicin binding to the 16S rRNA A site oligonucleotide
Description: FIG. 3. Gentamicin interacts with an oligonucleotide corresponding to the 16S rRNA. 20 μl reactions containing increasing concentrations of gentamicin (1 ng/ml, 10 ng/ml, 100 ng/ml, 1 μg/ml, 10 μg/ml, 50 μg/ml, 500 μg/ml) were added to 50 pmole end-labeled RNA oligonucleotide in TKM buffer, heated at 90° C. for 2 min and allowed to cool slowly to 24° C. 10 μl of 30% glycerol was added to each sample and the samples were applied to a 13.5% non-denaturing polyacrylamide gel. The gel was electrophoresed using 1200 volt-hours at 4° C. in TBE Buffer. Following electrophoresis, the gel was dried and the radioactivity was quantitated using a phosphorimager. The concentration of gentamicin added is indicated above each lane.
(§2) FIG. 4. The presence of 10 pg/ml gentamicin produces a gel mobility shift in the presence of the 16S rRNA oligonucleotide. 20 μl reactions containing increasing concentrations of gentamicin (100 ng/ml, 10 ng/ml, 1 ng/ml, 100 pg/ml, and 10 pg/ml) were added to 50 pmole end-labeled RNA oligonucleotide in TKM buffer were treated as described for FIG. 3.
FIG. 5. Gentamicin binding to the 16S rRNA oligonucleotide is weak in the absence of MgCl2.
as §1
RNA oligonucleotides were purchased from Dharmacon, Inc, Lafayette, Colo.). 500 pmole of either a 5′ fluorescein labeled oligonucleotide corresponding to the 16S rRNA A site (5′-[…]-3′ (SEQ ID NO:1); Moazed & Noller, 1987, Nature 327:389-394; Woodcock et al., 1991, EMBO J. 10:3099-3103; Yoshizawa et al., 1998, EMBO J. 17:6437-6448) or a 5′ fluorescein labeled oligonucleotide corresponding to the HIV-1 TAR element TAR RNA (5′-[…]-3′ (SEQ ID NO: 2); Huq et al., 1999, Nucleic Acids Research. 27:1084-1093; Hwang et al., 1999, Proc. Natl. Acad. Sci. USA 96:12997-13002) was 3′ labeled with 5′-^32P cytidine 3′,5′-bis(phosphate) (NEN) and T4 RNA ligase (NEBiolabs) in 10% DMSO as per manufacturer's instructions. The labeled oligonucleotides were purified using G-25 Sephadex columns (Boehringer Mannheim). For Tat-TAR gel retardation reactions the method of Huq et al. (Nucleic Acids Research, 1999, 27:1084-1093) was utilized with TK buffer containing 0.5 mM MgCl2 and a 12-mer Tat peptide (YGRKKRRQRRRP (SEQ ID NO: 3; single letter amino acid code). For 16S rRNA-gentamicin reactions, the method of Huq et al was used with TKM buffer. In 20 μl reaction volumes 50 pmoles of ^32P cytidine-labeled oligonucleotide and either gentamicin sulfate (Sigma) or the short Tat peptide (Tat47-58) in TK or TKM buffer were heated at 90° C. for 2 minutes and allow to cool to room temperature (approximately 24° C.) over 2 hours. Then 10 μl of 30% glycerol was added to each reaction tube and the entire sample was loaded onto a TBE non-denaturing polyacrylamide gel and electrophoresed at 1200-1600 volt-hours at 4° C. The gel was exposed to an intensifying screen and radioactivity was quantitated using a Typhoon phosporimager molecular Dynamics).

[4] = tested on: HIV TAR RNA element oligonucleotide; test: Gel mobility shift specificity control: gentamicin with an unrelated oligonucleotide; assay type: binding; conditions: incubated with 10 mg/ml gentamicin, FIG. 4
Description: as §2
RNA oligonucleotides were purchased from Dharmacon, Inc, Lafayette, Colo.). 500 pmole of either a 5′ fluorescein labeled oligonucleotide corresponding to the 16S rRNA A site (5′-[…]-3′ (SEQ ID NO:1); Moazed & Noller, 1987, Nature 327:389-394; Woodcock et al., 1991, EMBO J. 10:3099-3103; Yoshizawa et al., 1998, EMBO J. 17:6437-6448) or a 5′ fluorescein labeled oligonucleotide corresponding to the HIV-1 TAR element TAR RNA (5′-[…]-3′ (SEQ ID NO: 2); Huq et al., 1999, Nucleic Acids Research. 27:1084-1093; Hwang et al., 1999, Proc. Natl. Acad. Sci. USA 96:12997-13002) was 3′ labeled with 5′-^32P cytidine 3′,5′-bis(phosphate) (NEN) and T4 RNA ligase (NEBiolabs) in 10% DMSO as per manufacturer's instructions. The labeled oligonucleotides were purified using G-25 Sephadex columns (Boehringer Mannheim). […] The gel was exposed to an intensifying screen and radioactivity was quantitated using a Typhoon phosporimager molecular Dynamics). […]

Substance: YGRKKRRQRRRP [Tat47-58 peptide]
- gel mobility shift of TAR RNA oligonucleotide in the presence of the peptide [1]: a clear shift is visible
- shift of TAR RNA peak in capillary electrophoresis [2]: a clear shift is visible

Substance: gentamicin
- lowest gentamicin concentration that produces the mobility shift ([3]; TKM buffer (5 mM MgCl2), 1 ng/ml to 500 μg/ml tested, FIG. 3): ≤ 10 ng/mL
- gel shift when gentamicin is added after renaturation has proceeded to 75° C. ([3]; added after the renaturation step has proceeded to 75° C.): a mobility shift is not produced
- gentamicin binding to the 16S rRNA oligonucleotide in the absence of MgCl2 ([3]; buffer without MgCl2, FIG. 5): weak
- gel shift when gentamicin is added at 90° C. or 85° C. ([3]; gentamicin present during entire denaturation/renaturation cycle, data not shown): a gel shift is visualized
- gentamicin concentration that must be added to produce a gel shift when MgCl2 is not present ([3]; no MgCl2 (TK buffer), FIG. 5): 1 mg/mL
- mobility shift of 16S rRNA A site oligonucleotide on addition of gentamicin ([3]; varying concentrations, TKM buffer, FIG. 3): produces a mobility shift
- gel mobility shift of unrelated HIV TAR RNA oligonucleotide [4]: does not result in a gel mobility shift
